Molecules are shown by their SMILES.

For one series, the system named is IL-1β. As to the kind of experiment: THP-1 AlphaLISA IL-1β cytokine inhibition assay (differentiated THP-1 cells). In kind it is cell-based. As to conditions: LPS 24 hr then Nigericin 1 hour. The method, then: Biological Example 1—THP-1 AlphaLISA IL-1β
Measuring Inhibitory Effects on IL-1, Cytokine Output from THP-1s
(§1) The cytokine inhibition profiles of compounds of formula (I) were determined in a differentiated THP-1 cell assay. All assays were performed in RPMI-1640 growth medium (Gibco), supplemented with 10% fetal bovine serum (FBS; Gibco), 1% penicillin-streptomycin and 1% sodium pyruvate unless specified otherwise. The IL-1p cytokine inhibition assay was run in a background of differentiated THP-1 cells as described below. All reagents described were from Sigma-Aldrich unless specified otherwise. Compounds were prepared as 10 mM DMSO stocks.
(§2) THP-1 cells were expanded as a suspension up to 80% confluence in appropriate growth medium. Cells were harvested, suspended, and treated with an appropriate concentration of phorbol 12-myristate 13-acetate (PMA) over a 72 hr period (37° C./5% CO2).
(§3) Following 72 hrs of THP-1 cell incubation, cellular medium was removed and replaced with fresh growth media containing 1% of FBS. Working concentrations of compounds were prepared separately in 10% FBS treated growth medium and pre-incubated with the cells for 30 minutes (37° C./5% CO2). Following the 30 minute compound pre-incubation, THP-1s were treated with an appropriate concentration of LPS and the cells were subsequently incubated for a 24 hr period (37° C./5% CO2). An appropriate final concentration of Nigericin was then dispensed into the THP-1 plates and incubated for 1 hour (37° C./5% CO2) before THP-1 supernatants were harvested and collected in separate polypropylene 96-well holding plates.
(§4) Reagents from an IL-1β and IL-6 commercial kit (Perkin Elmer) were prepared and run according to the manufacturer's instructions. Subsequently, fluorescence signal detection in a microplate reader was measured (EnVision® Multilabel Reader, Perkin Elmer).
(§5) Percentage inhibition was calculated per cytokine by normalising the sample data to the high and low controls used within each plate (+/−LPS respectively). Percentage inhibition was then plotted against compound concentration and the 50% inhibitory concentration (IC50) was determined from the resultant concentration-response curve.
For orientation: Bead proximity is the source of the signal in Alpha formats.

Series [1] can be described thus: Hepatocyte stability assay, mouse cryopreserved hepatocytes. Format: in vitro ADME. As to conditions: cryopreserved hepatocytes, Mouse hepatocytes, 10 μM, 60 min, read-out: T½. The text has this:
(§6) Biological Example 3—Hepatocyte Stability Assay
(§7) Defrosted cryo-preserved hepatocytes (viability >70%) were used to determine the metabolic stability of a compound via calculation of intrinsic clearance (CIint; a measure of the removal of a compound from the liver in the absence of blood flow and cell binding). Clearance data are particularly important for in vitro work as they can be used in combination with in vivo data to predict the half-life and oral bioavailability of a drug.
(§8) The metabolic stability in hepatocytes assay involves a time-dependent reaction using both positive and negative controls. The cells were pre-incubated at 37° C. and spiked with test compound (and positive control); samples taken at pre-determined time intervals were analysed to monitor the change in concentration of the initial drug compound over 60 minutes. A buffer incubation reaction (with no hepatocytes present) acted as a negative control and two cocktail solutions, containing compounds with known high and low clearance values (verapamil/7-hydroxycoumarin and propranolol/diltiazem), acted as positive controls. • 1. The assay was run with a cell concentration of 0.5×10^6 cells/mL in Leibovitz buffer. • 2. All compounds and controls were run in duplicate. • 3. Compound concentration was 10 μM. • 4. All compounds and controls were incubated with both cells and buffer to show turnover was due to hepatic metabolism. • 5. All wells on the incubation plate had 326.7 μL of either cells or buffer added. • 6. Prior to assay, cell and buffer-only incubation plates were preincubated for 10 mins at 37° C. • 7. The assay was initiated by adding compounds, 3.3 μL of 1 mM in 10% DMSO-90% Buffer; final DMSO concentration is 0.1%. • 8. Samples were taken at regular timepoints (0, 5, 10, 20, 40, 60 min) until 60 mins. • 9. Sample volume was 40 μL and was added to 160 μL of crash solvent (acetonitrile with internal standard) and stored on ice. • 10. At the end of the assay, the crash plates were centrifuged at 3500 rpm for 20 mins at 4° C. • 11. 80 μL of clear supernatant was removed and mixed with 80 μL of deionised water before being analysed by LC-MS/MS.
(§9) Raw LC-MS/MS data was exported to, and analysed in, Microsoft Excel for determination of intrinsic clearance. The percentage remaining of a compound was monitored using the peak area of the initial concentration as 100%. Intrinsic clearance and half-life values were calculated using a graph of the natural log of percentage remaining versus the time of reaction in minutes. Half-life (min) and intrinsic clearance (CIint in μL min^−1 10^−6 cells) values were calculated using the gradient of the graph (the elimination rate constant, k) and Equations 1 and 2.

For series [2], the system named is cryo-preserved hepatocytes. The series is described as above. Format: in vitro ADME.
Excerpt: as §6, §7, §8, §9

Series [3] is described as follows: Hepatocyte stability assay, human cryopreserved hepatocytes. In kind it is in vitro ADME. As to conditions: cryopreserved hepatocytes, Human hepatocytes, 10 μM, 60 min, read-out: T½.
Excerpt: as §6, §7, §8, §9

The subject of series [4] is cryo-preserved hepatocytes. Described as above. In kind it is in vitro ADME.
Excerpt: as §6, §7, §8, §9

Another series deals with NRF2. The series can be described thus: NRF2 activation assay (DiscoverX PathHunter NRF2 translocation kit, U2OS cells). To be noted: 6 hours. In kind it is cell-based. The protocol:
Biological Example 2—NRF2 Activation Assay
Measuring Compound Activation Effects on the Anti-Inflammatory Transcription Factor NRF2 in DiscoverX PathHunter NRF2 Translocation Kit
Potency and efficacy of compounds of formula (I) against the target of interest to activate NRF2 (nuclear factor erythroid 2-related factor 2) were determined using the PathHunter NRF2 translocation kit (DiscoverX). The NRF2 translocation assay was run using an engineered recombinant cell line, utilising enzyme fragment complementation to determine activation of the Keap1-NRF2 protein complex and subsequent translocation of NRF2 into the nucleus. Enzyme activity was quantified using a chemiluminescent substrate consumed following the formation of a functional enzyme upon PK-tagged NRF2 translocation into the nucleus.
Additionally, a defined concentration of DMF was used as the ‘High’ control to normalise test compound activation responses to.
U2OS PathHunter eXpress cells were thawed from frozen prior to plating. Following plating, U2OS cells were incubated for 24 hrs (37° C./5% CO2) in commercial kit provided cell medium.
Following 24 hrs of incubation, plated U2OS cells were directly treated with an appropriate final concentration of compound. […]
Following compound treatment, the U2OS plates were incubated for a further 6 hours (37° C./5% CO2) before detection reagent from the PathHunter NRF2 commercial kit was prepared and added to test plates according to the manufacturer's instructions. Subsequently, the luminescence signal detection was measured in a microplate reader (PHERAstar®, BMG Labtech).
Percentage activation was calculated by normalising the sample data to the high and low controls used within each plate (+/−DMF). Percentage activation/response was then plotted against compound concentration and the 50% activation concentration ([…]) was determined from the plotted concentration-response curve.

For the next series, the system named is IL-6. As to the kind of experiment: THP-1 AlphaLISA IL-6 cytokine inhibition assay (differentiated THP-1 cells). In kind it is cell-based. As to conditions: LPS 24 hr then Nigericin 1 hour. The method, then: as §1, §2, §3, §4, §5
[5] abbreviates: Mouse hepatocytes, 10 μM, 60 min, numeric values.
Setting [6] is: Human hepatocytes, 10 μM, 60 min, numeric values.
The mark [7] stands for this setting: Homo sapiens, normalised to DMF high control, class symbols.
[8] abbreviates: Mouse hepatocytes, 10 μM, 60 min, class symbols.
Where [9] appears, read: compared to 4-octyl itaconate, ethyl 2-(2-chlorobenzyl)acrylate and 2-(2-chlorobenzyl)acrylic acid.

As a reminder, the IC50 is the concentration at which inhibition is half-maximal. The low end stands for greater potency, the high end for weaker potency. In the series with IL-1β (Homo sapiens, numeric values), `C=C(Cc1ccccc1Cl)C(=O)OCC` [ethyl 2-(2-chlorobenzyl)acrylate, reference compound] yielded an IC50 of over 100 µM. For the same molecule, the half-life at 10 μM in series [1] (numeric values) and in series [3] (numeric values) was under 3 min throughout. The Clint in series [2] (setting [5]) and in series [4] (setting [6]) was over 460 μL min^−1 10^−6 cells throughout.

As a reminder, the Emax is the greatest response seen or fitted, relative to the assay's reference. For orientation: EC50 means the concentration at which the effect is half-maximal. Read a high EC50 as weaker potency. In the series with IL-1β (Homo sapiens, numeric values), `C=C(Cc1ccccc1Cl)C(=O)O` [2-(2-chlorobenzyl)acrylic acid, reference compound] gave an IC50 of over 100 µM. Moreover, in the series with NRF2 (Homo sapiens, normalised to DMF high control, numeric values), the Emax turned out to be 2%. In the series on NRF2 (Homo sapiens, numeric values), this molecule registered a concentration for a half-maximal effect (EC50) of over 100 µM. In addition, the half-life at 10 μM in series [1] (numeric values) was 11 min; in series [3] (numeric values) it was 59 min. Also, the figures for the Clint in series [2] (setting [5]) and in series [4] (setting [6]) were 95 μL min^−1 10^−6 cells and 21 μL min^−1 10^−6 cells, respectively.

On to `C=C(CC(=O)OCCCCCCCC)C(=O)O` [4-octyl itaconate, reference compound], for which the IC50 in the series with IL-1β (numeric values) came to 33 µM; in the series with IL-6 (numeric values), 25 µM. Moreover, the “NRF2 activation Emax” value with NRF2 (normalised to DMF high control, numeric values) worked out at 165%. In the series on NRF2 (numeric values), this molecule gave an EC50 of 22 µM. Besides, the Clint is 351 μL min^−1 10^−6 cells in series [2] (setting [5]) and 401 μL min^−1 10^−6 cells in series [4] (setting [6]). For the same molecule, the T½ in series [2] (setting [5]) and in series [4] (setting [6]) was 4 min throughout.

`C=C(Cc1nc(Cc2ccc(Cl)cc2)no1)C(=O)OCC(=O)O` [Example 3, 2-((2-((3-(4-chlorobenzyl)-1,2,4-oxadiazol-5-yl)methyl)acryloyl)oxy)acetic acid] returned an IC50 in the series on IL-1β (Homo sapiens, class symbols) of 11 to 20 µM. The EC50 in the series with NRF2 (Homo sapiens, class symbols) lay in the range of 11 to 21 µM. In the series with NRF2 (setting [7]), this molecule gave an Emax of 135 to 165%. The values for the half-life at 10 μM in series [1] (class symbols) and in series [3] (class symbols) were over 11 min and over 100 min, respectively. Further, the Clint result in series [2] (setting [8]) is listed as “+++ (For Clint (μL min^−1 10^−6 cells; mouse), +++ means <95)”. Besides, the “Stability in mouse hepatocytes compared to comparators” value in series [2] (setting [9]) is on record as “more stable”. Besides, in series [4] (setting [9]), the “Stability in human hepatocytes compared to comparators” value is listed as “more stable”.

Turning to `C=C(Cc1nc(Cc2ccc(CCCC)cc2)no1)C(=O)OCc1nnn[nH]1` [Example 16, (1H-tetrazol-5-yl)methyl 2-((3-(4-butylbenzyl)-1,2,4-oxadiazol-5-yl)methyl)acrylate], the IC50 with IL-1β (Homo sapiens, class symbols) was under 5 µM; with IL-6 (Homo sapiens, class symbols) it was under 5 µM. The EC50 in the series on NRF2 (Homo sapiens, class symbols) is under 5 µM. In addition, the Emax in the series with NRF2 (setting [7]) fell in the range of 135 to 165%. For the same molecule, the half-life at 10 μM in series [1] (class symbols) is at most 4 min; in series [3] (class symbols) it was 5 to 59 min. Moreover, the Clint entry in series [2] (setting [8]) is “+ (+ means ≥351)”.

Consider `C=C(Cc1nc(CCCCCCCC)no1)C(=O)O[C@H](CC(=O)O)C(F)(F)F` [Example 5, (R)-4,4,4-trifluoro-3-((2-((3-octyl-1,2,4-oxadiazol-5-yl)methyl)acryloyl)oxy)butanoic acid], for which the IC50 in the series on IL-1β (Homo sapiens, class symbols) was under 5 µM; in the series on IL-6 (Homo sapiens, class symbols), under 5 µM. For the same molecule, the EC50 in the series on NRF2 (Homo sapiens, class symbols) is under 5 µM. The molecule also displayed an Emax with NRF2 (setting [7]) of 135 to 165%. The values for the half-life at 10 μM in series [1] (class symbols) and in series [3] (class symbols) were at most 4 min and 5 to 59 min, respectively. In addition, the Clint result in series [2] (setting [8]) is recorded as “+ (+ means ≥351)”.

For the origin of these results see patent US12459908B2, “Alpha, beta unsaturated methacrylic esters with anti-inflammatory properties” (Sitryx Therapeutics Limited, priority 2020, dated 2025).
